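Each compound was tested at five concentrations against cells in 96-well plates for 48 hours. GI50: concentration for 50% inhibition of growth.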 Calls of active or inactive are those of the source. Rule as the data show it: active = GI50 up to about 1.1 µM and inactive = higher.
Columns and labels:
Assay in all cases: DTP human tumour cell line panel, 48 h
HOP-92 = system: HOP-92
UO-31 = system: UO-31
COLO 205 = system: COLO 205
HL-60 = system: HL-60
NCI-H226 = system: NCI-H226
RXF 393 = system: RXF 393
HCT-116 = system: HCT-116
KM12 = system: KM12
Malme-3M = system: Malme-3M
EKVX = system: EKVX
NCI-H23 = system: NCI-H23
UACC-62 = system: UACC-62
CCRF-CEM = system: CCRF-CEM
HOP-62 = system: HOP-62
SF-268 = system: SF-268
A549 = system: A549
RPMI-8226 = system: RPMI-8226
786-0 = system: 786-0
ACHN = system: ACHN
SR = system: SR

Row | SMILES | GI50 (HOP-92) | GI50 (UO-31) | GI50 (COLO 205) | GI50 (HL-60) | GI50 (NCI-H226) | GI50 (RXF 393) | GI50 (HCT-116) | GI50 (KM12) | GI50 (Malme-3M) | GI50 (EKVX) | GI50 (NCI-H23) | GI50 (UACC-62) | GI50 (CCRF-CEM) | GI50 (HOP-62) | GI50 (SF-268) | GI50 (A549) | GI50 (RPMI-8226) | GI50 (786-0) | GI50 (ACHN) | GI50 (SR)
1 | S=P1(N2CCCCC2)Oc2ccc3ccccc3c2-c2c(ccc3ccccc23)O1 | 92.9 µM (inactive) | > 80.7 µM (inactive) | > 100 µM (inactive) | > 100 µM (inactive) | > 54.2 µM (inactive) | > 89.7 µM (inactive) | > 82.2 µM (inactive) | > 100 µM (inactive) | > 46 µM (inactive) | > 53.5 µM (inactive) | > 81.1 µM (inactive) | 94.8 µM (inactive) | > 31.6 µM (inactive) | > 100 µM (inactive) | > 82.2 µM (inactive) | > 89.5 µM (inactive) | > 91.2 µM (inactive) |  |  | 
2 | O=C1N(C2CCCCC2)CC12CCCCC2 | > 100 µM (inactive) | > 100 µM (inactive) | > 100 µM (inactive) | 41.2 µM (inactive) | > 100 µM (inactive) | > 100 µM (inactive) | > 100 µM (inactive) |  | > 100 µM (inactive) | > 100 µM (inactive) | > 100 µM (inactive) | > 100 µM (inactive) | > 100 µM (inactive) | > 100 µM (inactive) | > 100 µM (inactive) | > 100 µM (inactive) | > 100 µM (inactive) | > 100 µM (inactive) | > 100 µM (inactive) | 
3 | COP(C)(=O)/C(Cc1ccccc1)=N\O (centres undefined) | > 100 µM (inactive) | > 100 µM (inactive) | > 100 µM (inactive) | > 100 µM (inactive) | > 100 µM (inactive) |  | > 100 µM (inactive) |  |  |  | > 100 µM (inactive) |  | > 100 µM (inactive) | > 100 µM (inactive) |  | > 100 µM (inactive) | > 100 µM (inactive) |  | > 100 µM (inactive) | > 100 µM (inactive)
4 | C(=C/c1nc2ccccc2o1)/c1ccc2c(c1)OCO2 | 13.2 µM (inactive) | 17 µM (inactive) | 40.7 µM (inactive) | 16.8 µM (inactive) | 18 µM (inactive) | 14.7 µM (inactive) | 12.3 µM (inactive) | 4.91 µM (inactive) | 27.3 µM (inactive) | 55.5 µM (inactive) | 22.9 µM (inactive) | 2.62 µM (inactive) | > 67.9 µM (inactive) | 16.2 µM (inactive) | 19.8 µM (inactive) | 18.7 µM (inactive) | 26.4 µM (inactive) |  |  | 
5 | COc1ccc(OCC(C)(C)O)cc1 | > 100 µM (inactive) | > 100 µM (inactive) | > 100 µM (inactive) | > 100 µM (inactive) | > 100 µM (inactive) | > 100 µM (inactive) | > 100 µM (inactive) | > 100 µM (inactive) | > 100 µM (inactive) | > 100 µM (inactive) | > 100 µM (inactive) | > 100 µM (inactive) | > 100 µM (inactive) | > 100 µM (inactive) | > 100 µM (inactive) | > 100 µM (inactive) | > 100 µM (inactive) |  |  | 
6 | NC(=O)c1ccccc1NC(=O)C(=O)C(c1cnc2ccc([N+](=O)[O-])cc2n1)[N+](=O)[O-] (centres undefined) | > 100 µM (inactive) | 28.9 µM (inactive) |  | > 100 µM (inactive) | > 100 µM (inactive) | > 100 µM (inactive) | 87.7 µM (inactive) | 54.6 µM (inactive) | > 100 µM (inactive) | > 100 µM (inactive) | > 100 µM (inactive) | > 100 µM (inactive) | 39.2 µM (inactive) | > 100 µM (inactive) | > 100 µM (inactive) | > 100 µM (inactive) | > 100 µM (inactive) | > 100 µM (inactive) | 23.5 µM (inactive) | 
7 | O=C(N/N=C1\C(=O)Nc2ccc(Br)cc21)/C(O)=C/C(=O)c1ccc(Cl)cc1 | 43.1 µM (inactive) | > 100 µM (inactive) | 86.5 µM (inactive) |  | 75.2 µM (inactive) | 31.3 µM (inactive) | 47.1 µM (inactive) | > 100 µM (inactive) | > 100 µM (inactive) | 45.8 µM (inactive) | 71.9 µM (inactive) | 44.3 µM (inactive) |  | 54.6 µM (inactive) | 36.4 µM (inactive) | > 100 µM (inactive) | 19.4 µM (inactive) | 37.7 µM (inactive) | > 100 µM (inactive) | < 0.01 µM (active)
8 | Cc1nc2ccc(S(=O)(=O)Nc3nccs3)cc2c(=O)n1NS(=O)(=O)c1nccs1 | > 100 µM (inactive) | 13.7 µM (inactive) | > 100 µM (inactive) | 79.1 µM (inactive) | > 100 µM (inactive) | > 100 µM (inactive) |  | 64.9 µM (inactive) | > 100 µM (inactive) | > 100 µM (inactive) | > 100 µM (inactive) | 72.9 µM (inactive) | 86.7 µM (inactive) | > 100 µM (inactive) | > 100 µM (inactive) |  | > 100 µM (inactive) |  | 32 µM (inactive) | 
9 | CC(C)Oc1cccc(N2C(n3ccnc3)=Nc3ccncc3S2(=O)=O)c1 | 12.7 µM (inactive) | 21.6 µM (inactive) | 10.2 µM (inactive) |  | 21.7 µM (inactive) | 14.7 µM (inactive) | 13.6 µM (inactive) | 23.2 µM (inactive) | 13.5 µM (inactive) | 16.2 µM (inactive) | 11.5 µM (inactive) | 15.7 µM (inactive) |  | 18.3 µM (inactive) | 16.3 µM (inactive) | 20.4 µM (inactive) | 3 µM (inactive) | 10.4 µM (inactive) | 10 µM (inactive) | 3.78 µM (inactive)
10 | CCOC(=O)c1cn2c(n1)sc1cc([N+](=O)[O-])ccc12 | > 100 µM (inactive) | > 100 µM (inactive) | > 100 µM (inactive) |  | > 100 µM (inactive) | > 100 µM (inactive) | > 100 µM (inactive) | > 100 µM (inactive) | > 100 µM (inactive) | > 100 µM (inactive) | > 100 µM (inactive) | > 100 µM (inactive) | > 100 µM (inactive) | 37 µM (inactive) | > 100 µM (inactive) | > 100 µM (inactive) | > 100 µM (inactive) | 43.1 µM (inactive) | 92.3 µM (inactive) | > 100 µM (inactive)
11 | COc1cc(CO)c(CC(=O)NCCCc2ccccc2)cc1OC | > 100 µM (inactive) | > 100 µM (inactive) | > 100 µM (inactive) | 38 µM (inactive) | > 100 µM (inactive) |  | > 100 µM (inactive) | 54.6 µM (inactive) | > 100 µM (inactive) | > 100 µM (inactive) | > 100 µM (inactive) | > 100 µM (inactive) | > 100 µM (inactive) | > 100 µM (inactive) |  | > 100 µM (inactive) |  | > 100 µM (inactive) | > 100 µM (inactive) | 9.06 µM (inactive)
12 | Cc1ccc(N2Cc3c(ccc4ccccc34)OP2(=O)Oc2ccc(Cl)c(C)c2)cc1 (centres undefined) | 50 µM (inactive) | 20.3 µM (inactive) | > 100 µM (inactive) | > 100 µM (inactive) | > 100 µM (inactive) | > 79.4 µM (inactive) | 26.1 µM (inactive) | > 84.3 µM (inactive) | > 100 µM (inactive) | > 100 µM (inactive) | > 100 µM (inactive) | > 100 µM (inactive) | > 93.3 µM (inactive) | > 100 µM (inactive) | > 100 µM (inactive) | > 94.6 µM (inactive) | 10 µM (inactive) |  |  | 
13 | CCC1=C(C(C)=O)[C@@H]2CCCCC(C(=O)OC)[C@@H]2C1=O (some centres undefined) | > 100 µM (inactive) | > 100 µM (inactive) | > 100 µM (inactive) | > 100 µM (inactive) | > 100 µM (inactive) | > 100 µM (inactive) | > 100 µM (inactive) | > 100 µM (inactive) | > 100 µM (inactive) | > 100 µM (inactive) | > 100 µM (inactive) | > 100 µM (inactive) | > 100 µM (inactive) | > 100 µM (inactive) | > 100 µM (inactive) | > 100 µM (inactive) | > 100 µM (inactive) | > 100 µM (inactive) | > 100 µM (inactive) | 
14 | COc1ccc(C2C3C(=O)C=CC(=O)C3[C@@H]2C)cc1OC (some centres undefined) | > 100 µM (inactive) | 73.5 µM (inactive) | 78.5 µM (inactive) | > 10 µM (inactive) | 81.7 µM (inactive) | > 100 µM (inactive) | 28.4 µM (inactive) | > 100 µM (inactive) | > 100 µM (inactive) | > 100 µM (inactive) | > 100 µM (inactive) | > 100 µM (inactive) | > 10 µM (inactive) | > 100 µM (inactive) | > 100 µM (inactive) | > 100 µM (inactive) | 27.6 µM (inactive) | 40.7 µM (inactive) | 47.6 µM (inactive) | 
15 | C=C1C(=O)O[C@@H]2C[C@@]3(C)[C@H](O)CCC(=C)[C@@H]3C[C@H]12 [ASPERILIN] | 5.13 µM (inactive) | 10.8 µM (inactive) | 2.72 µM (inactive) |  | 4.29 µM (inactive) |  | 4.86 µM (inactive) | 3.49 µM (inactive) | 3.11 µM (inactive) | 16.1 µM (inactive) | 11.4 µM (inactive) | 5.96 µM (inactive) | 3.01 µM (inactive) | 17.1 µM (inactive) | 15.6 µM (inactive) | 21.5 µM (inactive) | 3.46 µM (inactive) | 9.66 µM (inactive) | 14.4 µM (inactive) | 3.14 µM (inactive)
16 | Oc1cc(O)c2c(c1)O[C@H](c1ccc(O)c(O)c1)[C@@H](O)C2 [CIANIDANOL] | > 100 µM (inactive) | > 100 µM (inactive) | > 100 µM (inactive) | > 100 µM (inactive) | > 100 µM (inactive) |  | > 100 µM (inactive) | > 100 µM (inactive) | > 100 µM (inactive) | > 100 µM (inactive) | > 100 µM (inactive) |  | > 100 µM (inactive) | > 100 µM (inactive) | > 100 µM (inactive) | > 100 µM (inactive) | > 100 µM (inactive) | > 100 µM (inactive) | > 100 µM (inactive) | > 100 µM (inactive)
